Data taken from PubChem BioAssay (NCI).
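Where inhibition never reached the appropriate level, the endpoint shown equals the highest concentration tested. Otherwise, values were interpolated linearly from a five-concentration, 48-hour dose response in 96-well plates. The concentration for full growth arrest is given as TGI.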

Legend:
Assay in all cases: growth of human tumour cells (NCI), 48 h
DMS 273 small cell lung = system: DMS 273 small cell lung
M14 melanoma = system: M14 melanoma
RPMI-8226 leukemia = system: RPMI-8226 leukemia
HCT-116 colon = system: HCT-116 colon
HOP-18 NSCLC = system: HOP-18 NSCLC
A549 NSCLC = system: A549 NSCLC
EKVX NSCLC = system: EKVX NSCLC
LXFL 529 NSCLC = system: LXFL 529 NSCLC
TK-10 renal = system: TK-10 renal
K-562 leukemia = system: K-562 leukemia
RXF 393 renal = system: RXF 393 renal
HOP-62 NSCLC = system: HOP-62 NSCLC
SNB-75 CNS = system: SNB-75 CNS
KM12 colon = system: KM12 colon
OVCAR-5 ovarian = system: OVCAR-5 ovarian
SF-268 CNS = system: SF-268 CNS
SK-MEL-2 melanoma = system: SK-MEL-2 melanoma
OVCAR-8 ovarian = system: OVCAR-8 ovarian
SK-MEL-5 melanoma = system: SK-MEL-5 melanoma
UO-31 renal = system: UO-31 renal
CAKI-1 renal = system: CAKI-1 renal
XF 498 CNS = system: XF 498 CNS
U251 CNS = system: U251 CNS
NCI-H23 lung = system: NCI-H23 lung
NCI-H522 lung = system: NCI-H522 lung
A498 renal = system: A498 renal
OVCAR-3 ovarian = system: OVCAR-3 ovarian
SW-620 colon = system: SW-620 colon
SNB-78 CNS = system: SNB-78 CNS
SF-539 CNS = system: SF-539 CNS
NCI-H226 lung = system: NCI-H226 lung
KM20L2 colon = system: KM20L2 colon
OVCAR-4 ovarian = system: OVCAR-4 ovarian
SN12C renal = system: SN12C renal
MALME-3M melanoma = system: MALME-3M melanoma
COLO 205 colon = system: COLO 205 colon
786-0 renal = system: 786-0 renal
HT29 colon = system: HT29 colon
HCT-15 colon = system: HCT-15 colon
SF-295 CNS = system: SF-295 CNS
CCRF-CEM leukemia = system: CCRF-CEM leukemia
RXF-631 renal = system: RXF-631 renal
NCI-H460 lung = system: NCI-H460 lung
SK-OV-3 ovarian = system: SK-OV-3 ovarian
UACC-257 melanoma = system: UACC-257 melanoma
IGROV1 ovarian = system: IGROV1 ovarian
LOX IMVI melanoma = system: LOX IMVI melanoma
DMS 114 small cell lung = system: DMS 114 small cell lung
ACHN renal = system: ACHN renal
HCC-2998 colon = system: HCC-2998 colon
MOLT-4 leukemia = system: MOLT-4 leukemia
UACC-62 melanoma = system: UACC-62 melanoma
SNB-19 CNS = system: SNB-19 CNS
HL-60(TB) leukemia = system: HL-60(TB) leukemia
SK-MEL-28 melanoma = system: SK-MEL-28 melanoma
HOP-92 NSCLC = system: HOP-92 NSCLC
M19-MEL melanoma = system: M19-MEL melanoma
DLD-1 colon = system: DLD-1 colon
SR leukemia = system: SR leukemia

Cn1c(=O)nc2n(-c3cccc(Cl)c3)c3ccccc3nc-2c1=O
TGI (DMS 273 small cell lung): 25.1 µM
TGI (M14 melanoma): 24 µM
TGI (RPMI-8226 leukemia): 51 µM
TGI (HCT-116 colon): 30.8 µM
TGI (HOP-18 NSCLC): 85.5 µM
TGI (A549 NSCLC): 33 µM
TGI (EKVX NSCLC): 26.9 µM
TGI (LXFL 529 NSCLC): 72.8 µM
TGI (TK-10 renal): 73.6 µM
TGI (K-562 leukemia): 38.2 µM
TGI (RXF 393 renal): 83.3 µM
TGI (HOP-62 NSCLC): 90.9 µM
TGI (SNB-75 CNS): 51.8 µM
TGI (KM12 colon): 44.9 µM
TGI (OVCAR-5 ovarian): 40.8 µM
TGI (SF-268 CNS): > 100 µM
TGI (SK-MEL-2 melanoma): 40.7 µM
TGI (OVCAR-8 ovarian): 78.1 µM
TGI (SK-MEL-5 melanoma): 25.2 µM
TGI (UO-31 renal): > 100 µM
TGI (CAKI-1 renal): 70 µM
TGI (XF 498 CNS): 35.3 µM
TGI (U251 CNS): 37.7 µM
TGI (NCI-H23 lung): 21.9 µM
TGI (NCI-H522 lung): 30.7 µM
TGI (A498 renal): 79.3 µM
TGI (OVCAR-3 ovarian): 6.61 µM
TGI (SW-620 colon): 25 µM
TGI (SNB-78 CNS): 57.7 µM
TGI (SF-539 CNS): 33 µM
TGI (NCI-H226 lung): 74.9 µM
TGI (KM20L2 colon): 23.8 µM
TGI (OVCAR-4 ovarian): 24.6 µM
TGI (SN12C renal): 28.5 µM
TGI (MALME-3M melanoma): 12.3 µM
TGI (COLO 205 colon): 16 µM
TGI (786-0 renal): > 100 µM
TGI (HT29 colon): 21.4 µM
TGI (HCT-15 colon): 30.2 µM
TGI (SF-295 CNS): 62.1 µM
TGI (CCRF-CEM leukemia): 50.5 µM
TGI (RXF-631 renal): 40.8 µM
TGI (NCI-H460 lung): 26.2 µM
TGI (SK-OV-3 ovarian): > 100 µM
TGI (UACC-257 melanoma): 23.8 µM
TGI (IGROV1 ovarian): 54 µM
TGI (LOX IMVI melanoma): 59.8 µM
TGI (DMS 114 small cell lung): 20 µM
TGI (ACHN renal): 29.8 µM
TGI (HCC-2998 colon): 25.6 µM
TGI (MOLT-4 leukemia): 42 µM
TGI (UACC-62 melanoma): 6.36 µM

C=CCN(N=O)C(=O)NCCCC(NC(C)=O)C(=O)NCc1ccccc1 (configuration not stated)
TGI (DMS 273 small cell lung): > 100 µM
TGI (SNB-19 CNS): > 100 µM
TGI (M14 melanoma): > 100 µM
TGI (RPMI-8226 leukemia): > 100 µM
TGI (HOP-18 NSCLC): > 100 µM
TGI (A549 NSCLC): > 100 µM
TGI (EKVX NSCLC): > 100 µM
TGI (LXFL 529 NSCLC): > 100 µM
TGI (TK-10 renal): > 100 µM
TGI (K-562 leukemia): > 100 µM
TGI (RXF 393 renal): > 100 µM
TGI (HOP-62 NSCLC): > 100 µM
TGI (SNB-75 CNS): > 100 µM
TGI (KM12 colon): > 100 µM
TGI (OVCAR-5 ovarian): > 100 µM
TGI (SF-268 CNS): > 100 µM
TGI (SK-MEL-2 melanoma): > 100 µM
TGI (OVCAR-8 ovarian): > 100 µM
TGI (SK-MEL-5 melanoma): > 100 µM
TGI (UO-31 renal): > 100 µM
TGI (HL-60(TB) leukemia): > 100 µM
TGI (CAKI-1 renal): > 100 µM
TGI (XF 498 CNS): > 100 µM
TGI (U251 CNS): > 100 µM
TGI (NCI-H23 lung): > 100 µM
TGI (SK-MEL-28 melanoma): > 100 µM
TGI (NCI-H522 lung): > 100 µM
TGI (A498 renal): > 100 µM
TGI (OVCAR-3 ovarian): > 100 µM
TGI (SW-620 colon): > 100 µM
TGI (SF-539 CNS): > 100 µM
TGI (NCI-H226 lung): > 100 µM
TGI (KM20L2 colon): > 100 µM
TGI (OVCAR-4 ovarian): > 100 µM
TGI (SN12C renal): > 100 µM
TGI (MALME-3M melanoma): > 100 µM
TGI (COLO 205 colon): > 100 µM
TGI (786-0 renal): > 100 µM
TGI (HT29 colon): > 100 µM
TGI (HCT-15 colon): > 100 µM
TGI (SF-295 CNS): > 100 µM
TGI (CCRF-CEM leukemia): > 100 µM
TGI (HOP-92 NSCLC): > 100 µM
TGI (RXF-631 renal): > 100 µM
TGI (NCI-H460 lung): > 100 µM
TGI (SK-OV-3 ovarian): > 100 µM
TGI (UACC-257 melanoma): > 100 µM
TGI (IGROV1 ovarian): > 100 µM
TGI (LOX IMVI melanoma): > 100 µM
TGI (DMS 114 small cell lung): > 100 µM
TGI (ACHN renal): > 100 µM
TGI (MOLT-4 leukemia): > 100 µM
TGI (M19-MEL melanoma): > 100 µM
TGI (UACC-62 melanoma): > 100 µM

C[C@]12CCC(=O)C[C@H]1CCC(O)[C@@H]2Br (some centres not stated)
TGI (DMS 273 small cell lung): > 100 µM
TGI (SNB-19 CNS): > 100 µM
TGI (M14 melanoma): > 100 µM
TGI (RPMI-8226 leukemia): > 100 µM
TGI (HCT-116 colon): > 100 µM
TGI (HOP-18 NSCLC): > 100 µM
TGI (A549 NSCLC): > 100 µM
TGI (LXFL 529 NSCLC): > 100 µM
TGI (TK-10 renal): > 100 µM
TGI (K-562 leukemia): > 100 µM
TGI (HOP-62 NSCLC): > 100 µM
TGI (SNB-75 CNS): > 100 µM
TGI (KM12 colon): > 100 µM
TGI (OVCAR-5 ovarian): > 100 µM
TGI (SF-268 CNS): > 100 µM
TGI (SK-MEL-2 melanoma): > 100 µM
TGI (OVCAR-8 ovarian): > 100 µM
TGI (SK-MEL-5 melanoma): > 100 µM
TGI (DLD-1 colon): > 100 µM
TGI (SR leukemia): > 100 µM
TGI (UO-31 renal): > 100 µM
TGI (HL-60(TB) leukemia): > 100 µM
TGI (CAKI-1 renal): > 100 µM
TGI (XF 498 CNS): > 100 µM
TGI (U251 CNS): > 100 µM
TGI (NCI-H23 lung): > 100 µM
TGI (SK-MEL-28 melanoma): > 100 µM
TGI (NCI-H522 lung): > 100 µM
TGI (A498 renal): > 100 µM
TGI (OVCAR-3 ovarian): > 100 µM
TGI (SW-620 colon): > 100 µM
TGI (SF-539 CNS): > 100 µM
TGI (NCI-H226 lung): > 100 µM
TGI (KM20L2 colon): > 100 µM
TGI (OVCAR-4 ovarian): > 100 µM
TGI (SN12C renal): > 100 µM
TGI (MALME-3M melanoma): > 100 µM
TGI (COLO 205 colon): > 100 µM
TGI (786-0 renal): > 100 µM
TGI (HT29 colon): > 100 µM
TGI (HCT-15 colon): > 100 µM
TGI (SF-295 CNS): > 100 µM
TGI (CCRF-CEM leukemia): > 100 µM
TGI (HOP-92 NSCLC): > 100 µM
TGI (RXF-631 renal): > 100 µM
TGI (NCI-H460 lung): > 100 µM
TGI (SK-OV-3 ovarian): > 100 µM
TGI (UACC-257 melanoma): > 100 µM
TGI (IGROV1 ovarian): > 100 µM
TGI (LOX IMVI melanoma): > 100 µM
TGI (DMS 114 small cell lung): > 100 µM
TGI (ACHN renal): > 100 µM
TGI (HCC-2998 colon): > 100 µM
TGI (MOLT-4 leukemia): > 100 µM
TGI (M19-MEL melanoma): > 100 µM
TGI (UACC-62 melanoma): > 100 µM
